Like-named read-outs stand apart in the source and are kept apart here.
How the values were obtained:
ECHOR = assay: Example II: in-water applied herbicidal mixtures, transplanted paddy rice, ECHOR; assay type: in vivo, Echinochloa oryzoides (early watergrass); settings: Echinochloa oryzoides; for pest or weed control at 8.75 g/ha: 8.75 gae/ha; for pest or weed control at 17.5 g/ha: 17.5 gae/ha
Method in brief: (§1)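 Greenhouse paddy pots of dried mud; rice seedlings at the second or third leaf stage were transplanted into mud 4 days before treatment. Osmocote 19:6:12 supplied nutrients. Solutions were pipetted individually and sequentially into the paddy water, with equal acetone and crop oil concentrate across treatments; controls got solvent blank.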

LEFCH = assay: Example I: postemergence foliar-applied herbicidal mixtures, direct seeded rice, LEFCH; assay type: in vivo, Leptochloa chinensis (Chinese sprangletop)
CYPRO = assay: Example II: in-water applied herbicidal mixtures, weed control in transplanted paddy rice (greenhouse), CYPRO; assay type: in vivo, Cyperus rotundus (purple nutsedge); settings: for Visual Weed Control (%) - 21 DAA CYPRO Obs / Visual Weed Control (%) - 22 DAA CYPRO Obs: in-water application; for Visual Weed Control (%) Obs: 20 DAA
Method in brief: as §1

CYPIR = assay: Example I: postemergence foliar-applied herbicidal mixtures, direct seeded rice, CYPIR; assay type: in vivo, Cyperus iria (rice flatsedge)
Method: (§2) The soil matrix was contained in plastic pots with a volume of 1 quart and a surface area of 83.6 square centimeters (cm^2). […] The plants were grown for 8-22 days in a greenhouse with an approximate 14 h photoperiod which was maintained at about 29° C. during the day and 26° C. during the night. Nutrients (Peters Excel® 15-5-15 5-Ca 2-Mg and iron chelate) were applied in the irrigation solution as needed and water was added on a regular basis. Supplemental lighting was provided with overhead metal halide 1000-Watt lamps as necessary. The plants were employed for testing when they reached the first through fourth true leaf stage.
(§3) Treatments consisted of the acid or esters of 4-amino-3-chloro-5-fluoro-6-(4-chloro-2-fluoro-3-methoxy-phenyl)pyridine-2-carboxylic acid (Compound A), each formulated as an SC (suspension concentrate), and various herbicidal components alone and in combination. Forms of compound A were applied on an acid equivalent basis.
(§4) For treatments comprised of formulated compounds, measured amounts of compounds were placed individually in 25 mL glass vials and diluted in a volume of 1.25% (v/v) Agri-Dex® crop oil concentrated to obtain 12× stock solutions. […] Application solutions were prepared by adding an appropriate amount of each stock solution (e.g., 1 mL) and diluted to the appropriate final concentrations with the addition of 10 mL of an aqueous mixture of 1.25% (v/v) crop oil concentrate so that the final spray solutions contained 1.25+/−0.05% (v/v) crop oil concentrate.
(§5) All stock solutions and applications solutions were visually inspected for compound compatibility prior to application. Spray solutions were applied to the plant material with an overhead Mandel track sprayer equipped with a 8002E nozzles calibrated to deliver 187 L/ha over an application area of 0.503 m^2 at a spray height of 18 to 20 inches (46 to 50 cm) above average plant canopy height. Control plants were sprayed in the same manner with the solvent blank.
(§6) The treated plants and control plants were placed in a greenhouse as described above and watered by sub-irrigation to prevent wash-off of the test compounds. After approximately 3 weeks, the condition of the test plants as compared with that of the untreated plants was determined visually and scored on a scale of 0 to 100 percent where 0 corresponds to no injury or growth inhibition and 100 corresponds to complete kill.
(§7) Colby's equation was used to determine the herbicidal effects expected from the mixtures (Colby, S. R. 1967. Calculation of the synergistic and antagonistic response of herbicide combinations. Weeds 15:20-22).
(§8) The following equation was used to calculate the expected activity of mixtures containing two active ingredients, A and B: Expected=A+B−(A×B/100)
(§9) A=observed efficacy of active ingredient A at the same concentration as used in the mixture.
(§10) B=observed efficacy of active ingredient B at the same concentration as used in the mixture.

AMARE = assay: Example IV: postemergence foliar-applied herbicidal mixtures, weed control in cereal crops in the greenhouse, AMARE; assay type: in vivo, Amaranthus retroflexus (redroot pigweed); settings: alone, 8.75 gai/ha, 20-22 days
Method in brief: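 Greenhouse plants were grown 7–36 days in potting mix (pH 6.0–6.8) under ~14 h photoperiod at about 18 °C day/17 °C night. Postemergence foliar sprays (12 mL) contained the second cereal herbicide with experimental compound as two- and three-way mixtures.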

ECHCG [1] = assay: Example I: postemergence foliar-applied herbicidal mixtures, direct seeded rice, ECHCG
Method: as §2, §3, §4, §5, §6, §7, §8, §9, §10

DIGSA = assay: Example I: postemergence foliar-applied herbicidal mixtures, direct seeded rice, DIGSA
Method: as §2, §3, §4, §5, §6, §7, §8, §9, §10

ECHCG [2] = assay: Example II: in-water applied herbicidal mixtures, transplanted paddy rice, ECHCG; assay type: in vivo, Echinochloa crus-galli (barnyardgrass); settings: for Visual Weed Control (%) - 21 DAA ECHCG Obs / Visual Weed Control (%) - 22 DAA ECHCG Obs: in-water application
Method in brief: as §1

[3] = 504 h, read-out: Visual Weed Control (%) Obs, 21 DAA
[4] = 528 h, read-out: Visual Weed Control (%) Obs, 22 DAA
[5] = 600 h, read-out: Visual Weed Control (%) Obs, 25 DAA

## COc1c(Cl)ccc(-c2nc(C(=O)OCc3ccccc3)c(Cl)c(N)c2F)c1F [Compound A Benzyl Ester, benzyl ester of 4-amino-3-chloro-5-fluoro-6-(4-chloro-2-fluoro-3-methoxy-phenyl)pyridine-2-carboxylic acid]
ECHOR; 504 h, read-out: Visual Weed Control (%) Obs, 21 DAA, 4.38 gae/ha
  pest or weed control at 4.38 g/ha: 15%
ECHOR; [3]
  pest or weed control at 8.75 g/ha: 15%
  pest or weed control at 17.5 g/ha: 20%
ECHOR; [4]
  pest or weed control at 8.75 g/ha: 35%
  pest or weed control at 17.5 g/ha: 30%
ECHOR; [5]
  pest or weed control at 8.75 g/ha: 85%
  pest or weed control at 17.5 g/ha: 90%
LEFCH; 4.38 gae/ha
  Visual Weed Control (%) - 20 DAA LEFCH Obs: 0%
LEFCH; 8.75 gae/ha
  Visual Weed Control (%) - 20 DAA LEFCH Obs: 20%
LEFCH; 16 gae/ha
  Visual Weed Control (%) - 19 DAA LEFCH Obs: 58%
CYPRO; 4.38 gae/ha
  Visual Weed Control (%) - 21 DAA CYPRO Obs: 0%
  Visual Weed Control (%) - 22 DAA CYPRO Obs: 90%
  Visual Weed Control (%) Obs: 0%
CYPRO; 8.75 gae/ha
  Visual Weed Control (%) - 21 DAA CYPRO Obs: 0%
  Visual Weed Control (%) - 22 DAA CYPRO Obs: 70%
  Visual Weed Control (%) Obs: 0%
CYPIR; 4.38 gae/ha
  Visual Weed Control (%) - 21 DAA CYPIR Obs: 75%
CYPIR; 8.75 gae/ha
  Visual Weed Control (%) - 20 DAA CYPIR Obs: 35%
  Visual Weed Control (%) - 21 DAA CYPIR Obs: 85%
AMARE
  AMARE Ob (observed value): 60%
ECHCG [1]; 4.38 gae/ha
  Visual Weed Control (%) - 21 DAA ECHCG Obs: 48%
  Visual Weed Control (%) - 23 DAA ECHCG Obs: 40%
ECHCG [1]; 8.75 gae/ha
  Visual Weed Control (%) - 21 DAA ECHCG Obs: 55%
  Visual Weed Control (%) - 23 DAA ECHCG Obs: 55%
ECHCG [1]; Compound A Benzyl Ester rate printed '—' (second line), Fluroxypyr MHE 0 gae/ha
  Visual Weed Control (%) - 21 DAA ECHCG Obs: 85%
ECHCG [1]; Compound A Benzyl Ester rate printed '—', Fluroxypyr MHE 0 gae/ha
  Visual Weed Control (%) - 21 DAA ECHCG Obs: 10%
DIGSA; 4.38 gae/ha
  Visual Weed Control (%) - 23 DAA DIGSA Obs: 0%
DIGSA; 8.75 gae/ha
  Visual Weed Control (%) - 23 DAA DIGSA Obs: 0%
DIGSA; 17.5 gae/ha
  Visual Weed Control (%) - 23 DAA DIGSA Obs: 15%
DIGSA; 35 gae/ha
  Visual Weed Control (%) - 20 DAA DIGSA Obs: 38%
ECHCG [2]; 4.38 gae/ha
  Visual Weed Control (%) - 21 DAA ECHCG Obs: 0%
  Visual Weed Control (%) - 22 DAA ECHCG Obs: 30%
ECHCG [2]; 8.75 gae/ha
  Visual Weed Control (%) - 21 DAA ECHCG Obs: 0%
  Visual Weed Control (%) - 22 DAA ECHCG Obs: 45%
ECHCG [2]; 17.5 gae/ha
  Visual Weed Control (%) - 21 DAA ECHCG Obs: 25%
ECHCG [2]; 19 DAA, 8 gae/ha
  Visual Weed Control (%) Obs: 35%
ECHCG [2]; 19 DAA, 16 gae/ha
  Visual Weed Control (%) Obs: 85%
ECHCG [2]; 20 DAA, 4.38 gae/ha
  Visual Weed Control (%) Obs: 15%
ECHCG [2]; 20 DAA, 8.75 gae/ha
  Visual Weed Control (%) Obs: 20%
ECHCG [2]; 20 DAA, 17.5 gae/ha
  Visual Weed Control (%) Obs: 40%
ECHCG [2]; 22 DAA, 4.38 gae/ha
  Visual Weed Control (%) Obs: 30%
ECHCG [2]; 22 DAA, 8.75 gae/ha
  Visual Weed Control (%) Obs: 45%
ECHCG [2]; 22 DAA, 17.5 gae/ha
  Visual Weed Control (%) Obs: 90%

Source: patent US8912120B2, “Herbicidal compositions comprising 4-amino-3-chloro-5-fluoro-6-(4-chloro-2-fluoro-3-methoxyphenyl) pyridine-2-carboxylic acid or a derivative thereof and synthetic auxin herbicides” (Dow AgroSciences, LLC., priority 2012, dated 2014)
